# Read-outs that look alike come from different tables or passages of the source.
# How the values were obtained:
# human orexin-2 receptor = human orexin-2 receptor (Homo sapiens (Human), UniProt O43614); assay: In vitro assay: intracellular calcium measurements (FLIPR), antagonistic activity; format: cell-based; details: CHO cells, 3 nM orexin-A, marked values are geometric means of n = 2-6, read-out: IC50 OX2
# human orexin-1 receptor = human orexin-1 receptor (Homo sapiens (Human), UniProt O43613); assay: as above; format: cell-based; details: CHO cells, 3 nM orexin-A, marked values are geometric means of n = 2-6, read-out: IC50 OX1
# [1] = compound incubation time of 10 min
# Chain of human orexin-1 receptor (O43613 whole entry): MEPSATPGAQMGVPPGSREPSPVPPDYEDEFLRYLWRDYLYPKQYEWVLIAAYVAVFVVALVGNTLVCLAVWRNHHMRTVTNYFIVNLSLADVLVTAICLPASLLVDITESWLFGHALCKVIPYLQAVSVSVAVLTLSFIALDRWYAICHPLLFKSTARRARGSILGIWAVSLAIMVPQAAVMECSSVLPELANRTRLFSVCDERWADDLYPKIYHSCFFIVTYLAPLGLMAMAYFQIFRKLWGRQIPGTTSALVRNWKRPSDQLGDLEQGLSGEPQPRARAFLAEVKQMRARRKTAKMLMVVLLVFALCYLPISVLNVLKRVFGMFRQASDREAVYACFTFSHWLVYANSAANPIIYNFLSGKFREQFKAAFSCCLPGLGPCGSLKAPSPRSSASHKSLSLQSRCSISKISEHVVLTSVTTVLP
# Chain of human orexin-2 receptor (O43614 whole entry): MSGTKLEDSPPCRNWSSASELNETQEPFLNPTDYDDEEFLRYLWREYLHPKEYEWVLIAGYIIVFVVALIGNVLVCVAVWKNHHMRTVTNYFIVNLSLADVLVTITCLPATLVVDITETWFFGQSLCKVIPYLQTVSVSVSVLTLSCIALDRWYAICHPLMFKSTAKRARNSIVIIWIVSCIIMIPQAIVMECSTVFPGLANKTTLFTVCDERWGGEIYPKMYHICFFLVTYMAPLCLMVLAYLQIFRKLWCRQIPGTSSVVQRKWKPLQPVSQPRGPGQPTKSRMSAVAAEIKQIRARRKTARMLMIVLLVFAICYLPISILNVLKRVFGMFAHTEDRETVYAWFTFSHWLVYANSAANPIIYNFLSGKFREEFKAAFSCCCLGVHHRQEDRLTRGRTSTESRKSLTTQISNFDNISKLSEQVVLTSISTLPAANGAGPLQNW
Compound,IC50 (human orexin-2 receptor; compound incubation 120 min) [nM],IC50 (human orexin-1 receptor; compound incubation 120 min) [nM],IC50 (human orexin-2 receptor; [1]) [nM],IC50 (human orexin-1 receptor; [1]) [nM]
"COc1cccc(OC)c1C1CC(C)C(=O)N1Cc1cccc(-c2ccccn2)c1F (stereo not shown) [Example 146, 5-(2,6-dimethoxyphenyl)-1-(2-fluoro-3-(pyridin-2-yl)benzyl)-3-methylpyrrolidin-2-one]",230,39,–,–
"COc1cccc(OC)c1C1CC(C)C(=O)N1Cc1cccc(-c2cncs2)c1 (stereo not shown) [Example 147, 5-(2,6-dimethoxyphenyl)-3-methyl-1-(3-(thiazol-5-yl)benzyl)pyrrolidin-2-one]",114,20,–,–
"COc1cccc(OC)c1C1CC(C)C(=O)N1Cc1cccc(-c2ncc(C)s2)c1 (stereo not shown) [Example 148, 5-(2,6-dimethoxyphenyl)-3-methyl-1-(3-(5-methylthiazol-2-yl)benzyl)pyrrolidin-2-one]",21,3,–,–
"COc1cccc(OC)c1C1CC(C)C(=O)N1Cc1cccc(-n2nccn2)c1 (stereo not shown) [Example 149, 1-(3-(2H-1,2,3-triazol-2-yl)benzyl)-5-(2,6-dimethoxyphenyl)-3-methylpyrrolidin-2-one]",77,6,–,–
"COc1cccc(OC)c1C1CC(C)C(=O)N1Cc1cccc(-c2cscn2)c1 (stereo not shown) [Example 150, 5-(2,6-dimethoxyphenyl)-3-methyl-1-(3-(thiazol-4-yl)benzyl)pyrrolidin-2-one]",47,7,–,–
"COc1cccc(OC)c1C1CC(C)C(=O)N1Cc1ccc2nc(C)sc2c1 (stereo not shown) [Example 151, 5-(2,6-dimethoxyphenyl)-3-methyl-1-((2-methylbenzo[d]thiazol-6-yl)methyl)pyrrolidin-2-one]",703,125,–,–
"COc1cccc(OC)c1C1CC(C)C(=O)N1Cc1cc(Cl)cc(-c2ccccn2)c1 (stereo not shown) [Example 152, 1-(3-chloro-5-(pyridin-2-yl)benzyl)-5-(2,6-dimethoxyphenyl)-3-methylpyrrolidin-2-one]",270,74,–,–
"COc1cccc(OC)c1C1CC(C)C(=O)N1Cc1ccc(F)c(-c2ccccn2)c1 (stereo not shown) [Example 153, 5-(2,6-dimethoxyphenyl)-1-(4-fluoro-3-(pyridin-2-yl)benzyl)-3-methylpyrrolidin-2-one]",122,8,–,–
"COc1cccc(OC)c1C1CC(C)C(=O)N1Cc1ccnc(-n2cccn2)c1 (stereo not shown) [Example 154, 1-((2-(1H-pyrazol-1-yl)pyridin-4-yl)methyl)-5-(2,6-dimethoxyphenyl)-3-methylpyrrolidin-2-one]",204,10,–,–
"COc1cccc(OC)c1C1CC(C)C(=O)N1Cc1cccc(-n2cccn2)n1 (stereo not shown) [Example 155, 1-((6-(1H-pyrazol-1-yl)pyridin-2-yl)methyl)-5-(2,6-dimethoxyphenyl)-3-methylpyrrolidin-2-one]",1180,134,–,–
"COc1cccc(OC)c1C1CCCC(=O)N1Cc1ccc(OC(F)(F)F)cc1 (stereo not shown) [Example 156, 6-(2,6-dimethoxyphenyl)-1-(4-(trifluoromethoxy)benzyl)piperidin-2-one]",–,–,22,259
"COc1cccc(OC)c1C1CCCC(=O)N1Cc1ccc(F)cc1 (stereo not shown) [Example 157, 6-(2,6-dimethoxyphenyl)-1-(4-fluorobenzyl)piperidin-2-one]",–,–,231,1460
"COc1cccc(OC)c1C1CCCC(=O)N1Cc1ccc(Cl)cc1 (stereo not shown) [Example 158, 1-(4-chlorobenzyl)-6-(2,6-dimethoxyphenyl)piperidin-2-one]",–,–,154,702
"COc1ccc(CN2C(=O)CCCC2c2c(OC)cccc2OC)cc1 (stereo not shown) [Example 159, 6-(2,6-dimethoxyphenyl)-1-(4-methoxybenzyl)piperidin-2-one]",–,–,397,684
"COc1cccc(OC)c1C1CCCC(=O)N1Cc1ccc(OC(F)(F)F)c(F)c1 (stereo not shown) [Example 160, 6-(2,6-dimethoxyphenyl)-1-(3-fluoro-4-(trifluoromethoxy)benzyl)piperidin-2-one]",–,–,18,238
"COc1cccc(OC)c1C1CCCC(=O)N1Cc1ccc(OC(F)(F)F)c(Cl)c1 (stereo not shown) [Example 161, 1-(3-chloro-4-(trifluoromethoxy)benzyl)-6-(2,6-dimethoxyphenyl)piperidin-2-one]",–,–,62,147
"COc1cccc(OC)c1C1CCCC(=O)N1Cc1ccc(SC(F)(F)F)cc1 (stereo not shown) [Example 162, 6-(2,6-dimethoxyphenyl)-1-(4-((trifluoromethyl)thio)benzyl)piperidin-2-one]",–,–,62,1310
"COc1cccc(OC)c1C1CCCC(=O)N1Cc1ccc(C(F)(F)F)cc1 (stereo not shown) [Example 163, 6-(2,6-dimethoxyphenyl)-1-(4-(trifluoromethyl)benzyl)piperidin-2-one]",–,–,171,1190
"COc1cccc(OC)c1C1CCCC(=O)N1Cc1ccc(Oc2ccccc2)cc1 (stereo not shown) [Example 164, 6-(2,6-dimethoxyphenyl)-1-(4-phenoxybenzyl)piperidin-2-one]",–,–,27,409

Compound,IC50 (human orexin-2 receptor; compound incubation 120 min) [nM],IC50 (human orexin-1 receptor; compound incubation 120 min) [nM],IC50 (human orexin-2 receptor; [1]) [nM],IC50 (human orexin-1 receptor; [1]) [nM]
"COc1cccc(OC)c1C1CCCC(=O)N1Cc1ccc(OC(F)F)cc1 (stereo not shown) [Example 165, 1-(4-(difluoromethoxy)benzyl)-6-(2,6-dimethoxyphenyl)piperidin-2-one]",–,–,31,224
"COc1cccc(OC)c1C1CCCC(=O)N1Cc1ccc2c(c1)OCO2 (stereo not shown) [Example 166, 1-(benzo[d][1,3]dioxol-5-ylmethyl)-6-(2,6-dimethoxyphenyl)piperidin-2-one]",–,–,549,1720
"COc1cc(Cl)cc(OC)c1C1CCCC(=O)N1Cc1ccc(OC(F)(F)F)cc1 (stereo not shown) [Example 167, 6-(4-chloro-2,6-dimethoxyphenyl)-1-(4-(trifluoromethoxy)benzyl)piperidin-2-one]",–,–,28,231
"COc1cccc(OC)c1C1CCCC(=O)N1Cc1ccc(-n2cccn2)cc1 (stereo not shown) [Example 168, 1-(4-(1H-pyrazol-1-yl)benzyl)-6-(2,6-dimethoxyphenyl)piperidin-2-one]",–,–,453,1820
"COc1cccc(OC)c1C1CCCC(=O)N1Cc1ccc(-n2cccc2)cc1 (stereo not shown) [Example 169, 1-(4-(1H-pyrrol-1-yl)benzyl)-6-(2,6-dimethoxyphenyl)piperidin-2-one]",–,–,190,1590
"COc1cccc(OC)c1C1CCCC(=O)N1Cc1ccc2nonc2c1 (stereo not shown) [Example 170, 1-(benzo[c][1,2,5]oxadiazol-5-ylmethyl)-6-(2,6-dimethoxyphenyl)piperidin-2-one]",–,–,766,2390
"COc1ccc2cc(CN3C(=O)CCCC3c3c(OC)cccc3OC)ccc2c1 (stereo not shown) [Example 171, 6-(2,6-dimethoxyphenyl)-1-((6-methoxynaphthalen-2-yl)methyl)piperidin-2-one]",–,–,66,122
"COc1cc(OC)c(C2CCCC(=O)N2Cc2ccc(OC(F)(F)F)cc2)c(OC)c1 (stereo not shown) [Example 172, 1-(4-(trifluoromethoxy)benzyl)-6-(2,4,6-trimethoxyphenyl)piperidin-2-one]",–,–,106,330
"COc1cccc(OC)c1C1CC(C)CC(=O)N1Cc1ccc(OC(F)(F)F)cc1 (stereo not shown) [Example 173, 6-(2,6-dimethoxyphenyl)-4-methyl-1-(4-(trifluoromethoxy)benzyl)piperidin-2-one]",–,–,297,537
"COc1cccc(OC)c1C1CC(C)(C)CC(=O)N1Cc1ccc(OC(F)(F)F)cc1 (stereo not shown) [Example 174, 6-(2,6-dimethoxyphenyl)-4,4-dimethyl-1-(4(trifluoromethoxy)benzyl)piperidin-2-one]",–,–,1080,1800
"COc1cccc(OC)c1C1CCCC(=O)N1Cc1cccc(OC(F)(F)F)c1 (stereo not shown) [Example 175, 6-(2,6-dimethoxyphenyl)-1-(3-(trifluoromethoxy)benzyl)piperidin-2-one]",–,–,94,136
"COc1cccc(OC)c1C1CCCC(=O)N1Cc1ccc(OCCF)cc1 (stereo not shown) [Example 176, 6-(2,6-dimethoxyphenyl)-1-(4-(2-fluoroethoxy)benzyl)piperidin-2-one]",–,–,61,327
"COc1cccc(OC)c1C1CCCC(=O)N1Cc1ccc(OC(F)F)nc1 (stereo not shown) [Example 177, 1-((6-(difluoromethoxy)pyridin-3-yl)methyl)-6-(2,6-dimethoxyphenyl)piperidin-2-one]",–,–,92,354
"COc1cccc(OC)c1C1CCCC(=O)N1Cc1cccc(OC(F)F)c1 (stereo not shown) [Example 178, 1-(3-(difluoromethoxy)benzyl)-6-(2,6-dimethoxyphenyl)piperidin-2-one]",–,–,78,215
"COc1cccc(OC)c1C1CCCC(=O)N1Cc1cccc(Oc2ccccc2)c1 (stereo not shown) [Example 179, 6-(2,6-dimethoxyphenyl)-1-(3-phenoxybenzyl)piperidin-2-one]",–,–,42,225
"COc1cccc(OC)c1C1CCCC(=O)N1Cc1cc2ccccc2o1 (stereo not shown) [Example 180, 1-(benzofuran-2-ylmethyl)-6-(2,6-dimethoxyphenyl)piperidin-2-one]",–,–,170,1450
"COc1cccc(OC)c1C1CCCC(=O)N1Cc1cc2ccccc2s1 (stereo not shown) [Example 181, 1-(benzo[b]thiophen-2-ylmethyl)-6-(2,6-dimethoxyphenyl)piperidin-2-one]",–,–,252,805
"COc1cccc(OC)c1C1CCCC(=O)N1Cc1ccc2c(c1)OC(F)(F)O2 (stereo not shown) [Example 182, 1-((2,2-difluorobenzo[d][1,3]dioxol-5-yl)methyl)-6-(2,6-dimethoxyphenyl)piperidin-2-one]",–,–,178,283
"COc1cccc(OC)c1C1CCCC(=O)N1Cc1cccc(OC(F)F)n1 (stereo not shown) [Example 183, 1-((6-(difluoromethoxy)pyridin-2-yl)methyl)-6-(2,6-dimethoxyphenyl)piperidin-2-one]",–,–,64,644
